Laboratory results as given in patent publication US20070072938A1, “DRONABINOL TREATMENT OF DELAYED CHEMOTHERAPY-INDUCED NAUSEA AND VOMITING” (priority 2005, published 2007).
Marks after values point to notes of the source that are not given here.

Assays:
[1] = system: patients receiving moderately to highly emetogenic chemotherapy; experiment: Safety and tolerability: treatment-emergent adverse events (safety population)
Description: (§1) A randomized, double-blind, placebo-controlled, parallel-group study evaluating the antiemetic efficacy and tolerability of oral dronabinol alone, dronabinol in combination with ondansetron, ondansetron alone, and placebo in patients receiving moderate to high emetogenic chemotherapy was conducted. All patients received dexamethasone 20 mg and ondansetron 16 mg intravenously prechemotherapy. […] On Day 2, placebo or fixed doses of 10 mg dronabinol, 16 mg ondansetron, or dronabinol plus ondansetron were administered. On Days 3-5, patients received placebo, flexible doses of 10-20 mg dronabinol, 8-16 mg ondansetron, or dronabinol plus ondansetron. Rescue antiemetics were permitted after using the maximum dose of medication. The primary efficacy variable was total response (“TR”) to study medication (TR=nausea intensity<5 mm on a 100-mm visual analog scale, no vomiting/retching, no rescue antiemetic). Secondary efficacy parameters included nausea status and intensity, as well as episodes of vomiting/retching. […] TR and presence/absence of nausea were evaluated using the Fisher's Exact Test. Tolerability was assessed by physical examination and adverse events.
AEs and concomitant medications were also assessed.

[2] = system: patients receiving moderately to highly emetogenic chemotherapy; experiment: Randomized, double-blind, placebo-controlled study: antiemetic efficacy in delayed CINV (Days 2-5); format: in vivo, human; conditions: for Absence of nausea / Absence of nausea (frequency/n) / Mean vomiting/retching / Total response (frequency/n) / Mean nausea intensity: Days 2-5; for Mean nausea intensity: 100-mm VAS; for Total response: Days 2-5 LOCF end point, TR = nausea <5 mm VAS, no vomiting/retching, no rescue; for Complete Response: No / Complete Response: Yes: LOCF End Point (Days 2-5)
Description: as §1
All efficacy analyses were based on the ITT population.
This was a randomized, double-blind, placebo-controlled, parallel-group, 5-day study to evaluate the antiemetic efficacy and safety of oral dronabinol (sole under the trade name, Marinol®) alone, and in combination with ondansetron (sole under the trade name, Zofran®), versus ondansetron alone in patients receiving moderately to highly emetogenic chemotherapy. The investigator obtained written approval from the Institutional Review Board, and the study was conducted in accordance with the Declaration of Helsinki.
Patients who entered the study were to undergo cancer chemotherapy with moderately to highly emetogenic agents on Day 1 when they were randomized into 1 of 4 treatment groups: dronabinol alone (Group Dronabinol), ondansetron alone (Group Ondansetron), combination therapy with dronabinol and ondansetron (Group Dronabinol/Ondansetron), or placebo (Group Placebo). All patients received a standard prechemotherapy regimen of dexamethasone (20 mg) and ondansetron (16 mg). […] Placebo patients received matching placebo prechemotherapy and postchemotherapy on Day 1.
(§2) A kit of open-label antiemetics (metoclopramide 10 mg, prochlorperazine 5 mg, and prochlorperazine 25-mg suppository) was provided to the study participants for use on Days 1 through 8 as rescue medications to treat intolerable nausea and vomiting and/or retching after using the maximum dose of study medication at any dosing interval. Patients recorded the use of rescue medication and returned the unused portion of the kit.
Each morning, patients recorded the number of vomiting and/or retching episodes in the previous day. In addition, the patient recorded the daily presence or absence of nausea and its duration.
The primary efficacy measure was the incidence of total response to treatment following administration of moderately to highly emetogenic chemotherapeutic agents. Total response was defined as no vomiting and/or retching, intensity of nausea <5 mm on a 100-mm Visual Analog Scale (VAS scale 0-100 mm; 0 mm=no nausea; 100 mm=intractable nausea), and no use of rescue medication.
The secondary efficacy analysis included patients who took rescue medication. However, analyses were conducted only on data collected before the use of any rescue medication. The secondary efficacy assessments were complete response, presence or absence of nausea, episodes of vomiting and/or retching, duration of nausea and vomiting and/or retching, intensity of nausea measured by VAS, ECOG (wellness), and QoL. Complete response for vomiting/retching was defined as no vomiting/retching, intensity of nausea of ≦30 mm on the VAS, and no use of rescue therapy.

[3] = system: patients receiving moderately to highly emetogenic chemotherapy; experiment: Other analyses: rescue antiemetic use and compliance with study medication; format: in vivo, human; conditions: for patients who required rescue medicine: Day 5; for Rescue antiemetics used (patients): whole study
Description: as §2
For the primary efficacy parameter, a logistic regression model was used for the primary analysis and a Cochran-Mantel-Haenszel (“CMH”) test stratified by pooled center was performed as a supportive analysis. Continuous secondary efficacy parameters were analyzed for all pairwise comparisons using a 2-way analysis of variance (“ANOVA”) with treatment and pooled center as fixed factors. For data that was not normally distributed, data were ranked, and an ANOVA was performed on the ranked scores. Categorical secondary efficacy parameters were analyzed for all pairwise comparisons using the CMH test stratified by pooled center. No adjustment for multiple comparisons was performed for the secondary efficacy parameters. No interactions were examined for the secondary efficacy parameters. Compliance with study medication was defined as taking all doses of supplied medication and was measured throughout the trial.

[4] = system: patients receiving moderately to highly emetogenic chemotherapy; experiment: ECOG (wellness) and McCorkle Symptom Distress Scale (QoL) assessment; format: in vivo, human
Description: The secondary efficacy analysis included patients who took rescue medication. However, analyses were conducted only on data collected before the use of any rescue medication. The secondary efficacy assessments were complete response, presence or absence of nausea, episodes of vomiting and/or retching, duration of nausea and vomiting and/or retching, intensity of nausea measured by VAS, ECOG (wellness), and QoL. Complete response for vomiting/retching was defined as no vomiting/retching, intensity of nausea of ≦30 mm on the VAS, and no use of rescue therapy. The presence or absence of nausea, episodes of vomiting and/or retching, and duration of nausea and vomiting and/or retching were assessed from daily patient telephone diary entries completed each morning to report the previous day. The patient was prompted through the Interactive Voice Response System to use the standard VAS to assess nausea intensity. The ECOG (wellness) assessment was clinician administered at screening and again on Day 6, Day 7, or Day 8 (or early termination). The possible range of the ECOG assessment was 0 to 4, where 0 was normal activity with no limitations and 4 was very sick, rarely out of bed.
The McCorkle Symptom Distress Scale (QoL assessment) evaluation was conducted on Day 1 (postchemotherapy) and again on Day 6, Day 7, or Day 8 (or early termination). […]

## CCCCCc1cc(O)c2c(c1)OC(C)(C)[C@@H]1CCC(C)=C[C@@H]21 [Dronabinol, delta-9-tetrahydrocannabinol]
[1]; Safety Population
  Adverse event: Asthenia: 2 (12) n (%)
  Adverse event: Chest pain: 1 (6) n (%)
  Adverse event: Constipation: 1 (6) n (%)
  Adverse event: Diarrhea: 4 (24) n (%)
  Adverse event: Dizziness: 1 (6) n (%)
  Adverse event: Fatigue: 2 (12) n (%)
  Adverse event: Headache: 0 n (%)
  Adverse event: Hyperglycemia: 0 n (%)
  Adverse event: Insomnia: 0 n (%)
  Patients who permanently discontinued study medication because of a TEAE: 1 (6) n (%)
  Patients with at least 1 SAE: 2 (12) n (%)
  Patients with at least 1 TEAE: 14 (82) n (%)
  Patients with at least 1 TEAE leading to dose reduction: 0 n (%)
  Patients with at least 1 severe TEAE: 2 (12) n (%)
[1]; result in words
  incidence of CNS-related events: low and few CNS-related AEs
  tolerability: well tolerated
[2]; Day 2
  Duration of nausea: 3-6 h: 0 n (%)
  Duration of nausea: 6-8 h: 1 (8) n (%)
  Duration of nausea: 8-10 h: 0 n (%)
  Duration of nausea: <3 h: 1 (8) n (%)
  Duration of nausea: >10 h: 2 (15) n (%)
  Duration of nausea: No nausea reported: 9 (69) n (%)
  Observed Duration of Vomiting/Retching (mean ± SD): 0.00 ± 0.00 h
[2]; Day 3
  Duration of nausea: 3-6 h: 0 n (%)
  Duration of nausea: 6-8 h: 2 (17) n (%)
  Duration of nausea: 8-10 h: 0 n (%)
  Duration of nausea: <3 h: 2 (17) n (%)
  Duration of nausea: >10 h: 1 (8) n (%)
  Duration of nausea: No nausea reported: 7 (58) n (%)
  Observed Duration of Vomiting/Retching (mean ± SD): 0.41 ± 1.36 h
[2]; Day 4
  Duration of nausea: 3-6 h: 0 n (%)
  Duration of nausea: 6-8 h: 0 n (%)
  Duration of nausea: 8-10 h: 0 n (%)
  Duration of nausea: <3 h: 1 (11) n (%)
  Duration of nausea: >10 h: 0 n (%)
  Duration of nausea: No nausea reported: 8 (89) n (%)
  Observed Duration of Vomiting/Retching (mean ± SD): 0.00 ± 0.01 h
[2]; Day 5
  Duration of nausea: 3-6 h: 0 n (%)
  Duration of nausea: 6-8 h: 0 n (%)
  Duration of nausea: 8-10 h: 0 n (%)
  Duration of nausea: <3 h: 1 (13) n (%)
  Duration of nausea: >10 h: 0 n (%)
  Duration of nausea: No nausea reported: 7 (88) n (%)
  Observed Duration of Vomiting/Retching (mean ± SD): 0.00 ± 0.00 h
[2]
  Absence of nausea: 71^† %
  Absence of nausea (frequency/n): (10/14)
  Mean vomiting/retching: 0.2 episodes/day
  Total response (frequency/n): (7/13)
  Mean nausea intensity: 10.1^† mm
  Total response: 54%
  Complete Response: No: 5 (38) n (%)
  Complete Response: Yes: 8 (62) n (%)
[2]; listed as dronabinol
  Absence of nausea: 71%
[2]; result in words
  antiemetic effect for delayed CINV: comparable with ondansetron
[3]
  patients who required rescue medicine: 12%
  Rescue antiemetics used (patients): 24%
[4]; Day 1 versus Day 6, 7 or 8, lower values = less distress
  McCorkle Symptom Distress Scale (QoL), mean change from baseline: −2.0±4.2
[4]; result in words
  ECOG (wellness) change after treatment: Shifts in ECOG from 1 to 0 (improvement)

## Cc1nccn1CC1CCc2c(c3ccccc3n2C)C1=O (stereo not drawn) [Ondansetron, ondansetron]
[1]; human, in vivo
  Adverse event: Asthenia: 1 (6) n (%)
  Adverse event: Chest pain: 2 (13) n (%)
  Adverse event: Constipation: 2 (13) n (%)
  Adverse event: Diarrhea: 1 (6) n (%)
  Adverse event: Dizziness: 1 (6) n (%)
  Adverse event: Fatigue: 1 (6) n (%)
  Adverse event: Headache: 3 (19) n (%)
  Adverse event: Hyperglycemia: 2 (13) n (%)
  Adverse event: Insomnia: 2 (13) n (%)
  Patients who permanently discontinued study medication because of a TEAE: 2 (13) n (%)
  Patients with at least 1 SAE: 1 (6) n (%)
  Patients with at least 1 TEAE: 14 (88) n (%)
  Patients with at least 1 TEAE leading to dose reduction: 0 n (%)
  Patients with at least 1 severe TEAE: 1 (6) n (%)
[2]; Day 2
  Duration of nausea: 3-6 h: 0 n (%)
  Duration of nausea: 6-8 h: 0 n (%)
  Duration of nausea: 8-10 h: 0 n (%)
  Duration of nausea: <3 h: 4 (33) n (%)
  Duration of nausea: >10 h: 1 (8) n (%)
  Duration of nausea: No nausea reported: 7 (58) n (%)
  Observed Duration of Vomiting/Retching (mean ± SD): 2.00 ± 6.93 h
[2]; Day 3
  Duration of nausea: 3-6 h: 0 n (%)
  Duration of nausea: 6-8 h: 1 (10) n (%)
  Duration of nausea: 8-10 h: 0 n (%)
  Duration of nausea: <3 h: 1 (10) n (%)
  Duration of nausea: >10 h: 0 n (%)
  Duration of nausea: No nausea reported: 8 (80) n (%)
  Observed Duration of Vomiting/Retching (mean ± SD): 0.06 ± 0.17 h
[2]; Day 4
  Duration of nausea: 3-6 h: 0 n (%)
  Duration of nausea: 6-8 h: 0 n (%)
  Duration of nausea: 8-10 h: 0 n (%)
  Duration of nausea: <3 h: 1 (13) n (%)
  Duration of nausea: >10 h: 0 n (%)
  Duration of nausea: No nausea reported: 7 (88) n (%)
  Observed Duration of Vomiting/Retching (mean ± SD): 0.00 ± 0.00 h
[2]; Day 5
  Duration of nausea: 3-6 h: 1 (14) n (%)
  Duration of nausea: 6-8 h: 0 n (%)
  Duration of nausea: 8-10 h: 0 n (%)
  Duration of nausea: <3 h: 0 n (%)
  Duration of nausea: >10 h: 0 n (%)
  Duration of nausea: No nausea reported: 6 (86) n (%)
  Observed Duration of Vomiting/Retching (mean ± SD): 0.02 ± 0.06 h
[2]
  Absence of nausea: 64^† %
  Absence of nausea (frequency/n): (9/14)
  Mean vomiting/retching: 1.3 episodes/day
  Total response (frequency/n): (7/12)
  Mean nausea intensity: 24.0^† mm
  Total response: 58%
  Complete Response: No: 5 (42) n (%)
  Complete Response: Yes: 7 (58)* n (%)
[2]; listed as ondansetron
  Absence of nausea: 64%
[3]
  patients who required rescue medicine: 25%
  Rescue antiemetics used (patients): 31%
